The structures appear in SMILES notation. A value given as a limit tells only on which side of the number the result lay.

The subject of one test is HaCaT. Nature of the test: Cell survival by CellTiterGlo, control cells. Type of test: cell-based, human. As to conditions: for IC50: Homo sapiens, HaCaT, control skin cell line, CellTiterGlo, normalized to DMSO, read-out: IC50 (nM) HaCaT; for AUC (arbitrary units) HaCaT: area under the dose-response curve, control cells. Background: In ATP-based viability assays light output follows the ATP content of the culture.

A further test has as its system MCC13. Kind of test: Cell survival by CellTiterGlo, VN-MCC line MCC13. Type of test: cell-based. The following applies: for IC50: CellTiterGlo, normalized to DMSO; for AUC (arbitrary units) MCC13: area under the dose-response curve.
The subject of another test is MCC26. Kind of test: Cell survival by CellTiterGlo, VN-MCC line MCC26. Type of test: cell-based. The following applies: for IC50: CellTiterGlo, normalized to DMSO; for AUC (arbitrary units) MCC26: area under the dose-response curve.
The next test deals with UISO. Kind of test: Cell survival by CellTiterGlo, VN-MCC line UISO. It counts as cell-based. As to conditions: for IC50: CellTiterGlo, normalized to DMSO; for AUC (arbitrary units) UISO: area under the dose-response curve.
For the next test, the system named is MKL-1. Kind of test: Cell survival by CellTiterGlo, VP-MCC line MKL-1. Type of test: cell-based. The following applies: VP-MCC; for IC50: MKL-1, CellTiterGlo, normalized to DMSO, read-out: IC50 (nM) MKL-1; for AUC (arbitrary units) MKL-1: area under the dose-response curve.
The next test relates to MKL-2. Kind of test: Cell survival by CellTiterGlo, VP-MCC line MKL-2. Type of test: cell-based. As to conditions: for IC50: CellTiterGlo, normalized to DMSO; for AUC (arbitrary units) MKL-2: area under the dose-response curve.
In a further test the test system is Waga. Kind of test: Cell survival by CellTiterGlo, VP-MCC line Waga. The following applies: for IC50: CellTiterGlo, normalized to DMSO; for AUC (arbitrary units) WaGa: area under the dose-response curve. It counts as cell-based.

Usually IC50 stands for the point on the concentration scale where inhibition reaches its midpoint. `O=C(O)CNC1C2C(=O)C=C3SC4CC31C1=C(N4)C(=O)c3[nH]cc4c3C1=[N+]2CC4` (single isomer, unassigned; (-)) [Compound 13]: in the test with HaCaT, the IC50 was greater than 10000 nM and the “AUC (arbitrary units) HaCaT” value is recorded as 909 arbitrary units. Further, in the test with MCC13, the IC50 came to 3820 nM and the “AUC (arbitrary units) MCC13” value came to 478.7 arbitrary units. In addition, in the test on MCC26, the IC50 is greater than 6000 nM and the “AUC (arbitrary units) MCC26” value is 719.3 arbitrary units. Besides, in the test with UISO, the concentration for half-maximal inhibition (IC50) came to 3420 nM and the “AUC (arbitrary units) UISO” value stood at 436.7 arbitrary units. In the test with MKL-1, the IC50 stood at 682 nM and the “AUC (arbitrary units) MKL-1” value is 83.43 arbitrary units. Besides, in the test with MKL-2, half-maximal inhibition (IC50) required 2910 nM and the “AUC (arbitrary units) MKL-2” value was found to be 391.1 arbitrary units. In addition, in the test on Waga, the IC50 is 1560 nM and the “AUC (arbitrary units) WaGa” value came out at 200.7 arbitrary units.
Take `O=C1C=C2S[C@H]3C[C@]2(C=C1Br)C1=C(N3)C(=O)c2[nH]cc3ccnc1c23` [Compound 3, (+)-(6S,8S) discorhabdin Q]: in the test on HaCaT, the half-inhibitory concentration (IC50) was 5450 nM and the “AUC (arbitrary units) HaCaT” value was 604.2 arbitrary units. In the test with MCC13, the IC50 amounted to 3500 nM and the “AUC (arbitrary units) MCC13” value turned out to be 419.1 arbitrary units. Besides, in the test on MCC26, inhibition was half-maximal at 3760 nM (IC50) and the “AUC (arbitrary units) MCC26” value came to 432.3 arbitrary units. For the same compound, in the test with UISO, the IC50 is 3850 nM and the “AUC (arbitrary units) UISO” value is listed as 447.9 arbitrary units. Besides, in the test on MKL-1, the IC50 was 3440 nM and the “AUC (arbitrary units) MKL-1” value is reported as 389.4 arbitrary units. For the same compound, in the test on MKL-2, half-maximal inhibition (IC50) required 2040 nM and the “AUC (arbitrary units) MKL-2” value is 350.1 arbitrary units. In the test on Waga, the IC50 turned out to be 3290 nM and the “AUC (arbitrary units) WaGa” value is reported as 405.1 arbitrary units.
As for `CSC1=CC(=O)C=C2S[C@H]3C[C@@]12C1=C(N3)C(=O)c2[nH]cc3c2C1=NCC3` [Compound 7, (+)-(6R,8S) thiomethyldiscorhabdin G*/I], in the test with HaCaT, the IC50 was 7960 nM and the “AUC (arbitrary units) HaCaT” value was 745.5 arbitrary units. Further, in the test with MCC13, 4500 nM corresponded to half-maximal inhibition (IC50) and the “AUC (arbitrary units) MCC13” value is given as 495.1 arbitrary units. In the test with MCC26, the IC50 amounted to 7890 nM and the “AUC (arbitrary units) MCC26” value is given as 638.2 arbitrary units. In the test on UISO, inhibition was half-maximal at 3270 nM (IC50) and the “AUC (arbitrary units) UISO” value came to 360.8 arbitrary units. Further, in the test with MKL-1, the IC50 is 1230 nM and the “AUC (arbitrary units) MKL-1” value came out at 144.5 arbitrary units. Besides, in the test on Waga, 2990 nM corresponded to half-maximal inhibition (IC50) and the “AUC (arbitrary units) WaGa” value is listed as 321.6 arbitrary units.
As to `Cn1cc2c3c1C(=O)C1=C(C3=NCC2)[C@]2(C=CC(=O)C(Br)=C2)CCN1` [Compound 23, (+)-(6S)-N-13-methyldiscorhabdin E], in the test on HaCaT, the IC50 amounted to 2980 nM and the “AUC (arbitrary units) HaCaT” value stood at 319.6 arbitrary units. In the test on MCC13, 1290 nM corresponded to half-maximal inhibition (IC50) and the “AUC (arbitrary units) MCC13” value is recorded as 155.7 arbitrary units. Moreover, in the test on MCC26, inhibition was half-maximal at 2880 nM (IC50) and the “AUC (arbitrary units) MCC26” value is 306.3 arbitrary units. Besides, in the test on UISO, the IC50 is 781 nM and the “AUC (arbitrary units) UISO” value is 90.78 arbitrary units. In the test with MKL-1, the IC50 turned out to be 186 nM and the “AUC (arbitrary units) MKL-1” value is 23.33 arbitrary units. Also, in the test on Waga, the IC50 came to 546 nM and the “AUC (arbitrary units) WaGa” value is 65.1 arbitrary units.
Consider `O=C1C2=C(C3=NCCc4c[nH]c1c43)c1c(cc(Br)c(O)c1Br)CCN2` [Compound 24, discorhabdin C phenol], for which, in the test with HaCaT, the IC50 was greater than 10000 nM and the “AUC (arbitrary units) HaCaT” value is listed as 884.9 arbitrary units. In the test with MCC13, the IC50 is 4640 nM and the “AUC (arbitrary units) MCC13” value is listed as 528.6 arbitrary units. For the same compound, in the test with MCC26, it took 6920 nM to reach half-maximal inhibition (IC50) and the “AUC (arbitrary units) MCC26” value was 708.7 arbitrary units. Further, in the test with UISO, 4210 nM corresponded to half-maximal inhibition (IC50) and the “AUC (arbitrary units) UISO” value amounted to 493.2 arbitrary units. Also, in the test with MKL-1, the IC50 was determined as 2330 nM and the “AUC (arbitrary units) MKL-1” value came to 279.7 arbitrary units. Moreover, in the test with Waga, half-maximal inhibition (IC50) was put at 5460 nM and the “AUC (arbitrary units) WaGa” value is on record as 611.2 arbitrary units.

Source of the values: publication PMC10532587, “An Investigation of Structure–Activity Relationships and Cell Death Mechanisms of the Marine Alkaloids Discorhabdins in Merkel Cell Carcinoma Cells” (Marine Drugs, 2023).
